Experimental data from patent US20060183119A1, “Method for determining predisposition to a physiological reaction in a patient” (UNIVERSITE LAVAL, priority 2002, published 2006).
Substitutions are numbered along the chain they refer to.

Tests used:
[1] = biological target: T1, UGT1A7*4 (Homo sapiens, UniProt Q9HAW7, W208R); test: SN-38 glucuronidation by microsomes of HEK293 cells expressing UGT1A7*4; type: in vitro ADME; set-up: key to Function (SN-38G formation versus *1 allele): High: no significant difference in activity compared to *1 allele.; Low: significantly lower SN-38G formation versus *1 allele
T1 construct: expressed in transfected cells
T1 sequence (Q9HAW7 26-530 W208R): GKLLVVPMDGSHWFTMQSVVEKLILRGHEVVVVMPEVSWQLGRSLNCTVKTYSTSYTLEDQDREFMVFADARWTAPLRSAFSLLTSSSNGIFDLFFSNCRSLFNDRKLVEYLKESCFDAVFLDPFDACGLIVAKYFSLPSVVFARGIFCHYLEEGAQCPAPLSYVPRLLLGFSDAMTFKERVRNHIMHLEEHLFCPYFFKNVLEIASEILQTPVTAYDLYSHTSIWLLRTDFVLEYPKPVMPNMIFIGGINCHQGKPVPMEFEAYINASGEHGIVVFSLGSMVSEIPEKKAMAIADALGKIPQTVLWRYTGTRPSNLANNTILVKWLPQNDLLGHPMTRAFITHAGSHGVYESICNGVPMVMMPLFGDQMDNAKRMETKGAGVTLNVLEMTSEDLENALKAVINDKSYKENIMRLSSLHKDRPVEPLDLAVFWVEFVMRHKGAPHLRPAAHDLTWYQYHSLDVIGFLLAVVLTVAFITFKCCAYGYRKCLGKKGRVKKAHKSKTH
Method: (§1) Western blot analyses of UGT1A7 and UGT1A9 variants expressed in HEK293 cells were performed on microsomal proteins (10 μg) separated on a 10% SDS-polyacrylamide gel. After transferring the proteins, the membranes were probed with an anti-UGT1A RC-71 polyclonal antibody and with an anti-calnexin antibody. The relative levels of UGT1A9 (a) and UGT1A7 proteins (b) were determined by semi-quantitative densitometric analysis of the Enhanced chemiluminescence (ECL) image. The in vitro SN-38 activity was assessed using microsomal fractions prepared from HEK293 cells expressing the *1 and variant UGT1A9 (c) and UGT1A7 (d) alleles and incubated with 5 μM of SN-38 as described in Materials and Methods.
(§2) For the determination of Vmax and Km.

[2] = biological target: T2, UGT1A7*8 (Homo sapiens, UniProt Q9HAW7, E139D/N129K/R131K/W208R); test: SN-38 glucuronidation by microsomes of HEK293 cells expressing UGT1A7*8; type: in vitro ADME; set-up: key to Function (SN-38G formation versus *1 allele): High: no significant difference in activity compared to *1 allele.; Low: significantly lower SN-38G formation versus *1 allele
T2 construct: expressed in transfected cells
T2 sequence (Q9HAW7 26-530 N129K/R131K/E139D/W208R): T1 sequence (Q9HAW7 26-530 W208R) with N104K, R106K, E114D
Method: as §1, §2

## CCc1c2c(nc3ccc(O)cc13)-c1cc3c(c(=O)n1C2)COC(=O)[C@]3(O)CC [SN-38, 7-ethyl-10-hydroxycamptothecin]
[1]
  SN-38 glucuronidating activity of the allele (in words): low
[1]; in vitro experiments
  Function (SN-38G formation versus *1 allele): Low
[2]
  SN-38 glucuronidating activity of the allele (in words): low
[2]; in vitro experiments
  Function (SN-38G formation versus *1 allele): Low
[2]; range given for *5, *7 and *8 together
  lower rates of SN-38G formation compared to UGT1A7*1: 38-76%
